From US20080214800A1, “SIRT INHIBITORS THAT BIND TO NAD” (Elixir Pharmaceuticals, Inc., priority 2005, published 2008) come the findings set out here.

The test system of the test is HeLa cell. Kind of test: HeLa cell apoptosis assay, Cell Death Detection ELISA plus kit. More on the design: unit not given here. Type of test: cell-based. On the procedure:
The following exemplary compounds were evaluated for their effect on a HeLa cell apoptosis assay using the Cell Death Detection ELISA plus kit from Roche Applied Science.

Take `Cn1c2c(c3cc(Cl)ccc31)C(C(N)=O)CCC2` (centres unmarked) [Compound 5]: the “average (HeLa apoptosis assay)” value is, setting by setting: (dose 0.5) 1.00; (dose 2.5) 0.97; (dose 10) 1.07; (dose 25) 0.91.

Consider `Oc1ccc(/C=C/c2cc(O)cc(O)c2)cc1` [Resveratol], for which the “average (HeLa apoptosis assay)” value was determined as 0.83 (dose 0.5), 0.84 (dose 2.5), 1.01 (dose 10) and 0.56 (dose 25).
